Results taken from ChEMBL document CHEMBL1201862, “PubChem BioAssay data set” (2004).
Calls of active or inactive are those of the source.

Assays:
[1] = target: T1, Polyadenylate-binding protein 1 (Homo sapiens, UniProt P11940); experiment: PABP1 MLLE–PAM2 interaction inhibitors, dose response, miRNA deadenylation inhibitor project, biochemical, fluorescence polarization, Cy5-PAM2 peptide, secondary (AID 602260); format: functional; details: read-out: IC50_Mean
[2] = target: T1, Polyadenylate-binding protein 1; experiment: PABP1 MLLE–PAM2 binding inhibitor potency, dose response, biochemical, fluorescence polarization, FITC-PAM2 peptide (AID 602259); format: functional; details: read-out: IC50_Mean
cells = format: functional
[3] = target: T2, Heat shock factor protein 1 (Mus musculus, UniProt P38532); experiment: HSF1 potentiators in luciferase reporter cells, confirmation, cell-based, NIH3T3, luminescence, dose retest (AID 435004); format: functional;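 further: stress induced by proteasome inhibitor MG132 added 30 min after compound; luciferase reporter driven by HSF1 response element in NIH3T3 cells; actives raise luminescence as potentiators of the MG132 stress response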
T2 sequence (P38532 whole entry): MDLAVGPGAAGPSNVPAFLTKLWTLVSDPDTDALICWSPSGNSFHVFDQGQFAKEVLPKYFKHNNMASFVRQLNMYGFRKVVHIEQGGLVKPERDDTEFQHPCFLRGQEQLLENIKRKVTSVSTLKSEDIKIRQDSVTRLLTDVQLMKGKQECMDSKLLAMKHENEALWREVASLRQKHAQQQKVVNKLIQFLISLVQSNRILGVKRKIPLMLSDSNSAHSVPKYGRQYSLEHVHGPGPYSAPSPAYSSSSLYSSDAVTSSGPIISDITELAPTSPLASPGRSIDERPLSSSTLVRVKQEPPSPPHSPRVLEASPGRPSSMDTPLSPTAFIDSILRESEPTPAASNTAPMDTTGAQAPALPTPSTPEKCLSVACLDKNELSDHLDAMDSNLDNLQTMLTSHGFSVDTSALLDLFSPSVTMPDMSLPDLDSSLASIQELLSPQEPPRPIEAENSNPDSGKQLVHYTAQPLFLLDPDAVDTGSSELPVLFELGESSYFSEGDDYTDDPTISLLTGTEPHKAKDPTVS

Fatty acid synthase [4] = target: T3, Fatty acid synthase (Homo sapiens, UniProt P49327); experiment: FAS thioesterase domain inhibitors, dose response, biochemical, endpoint fluorescence intensity, uHTS hits (AID 624327); format: functional;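 further: fluorescence from hydrolysis of an O-methyl fluorescein acyl ester substrate by the enzyme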
T3 sequence (P49327 whole entry, the tested form may be a part): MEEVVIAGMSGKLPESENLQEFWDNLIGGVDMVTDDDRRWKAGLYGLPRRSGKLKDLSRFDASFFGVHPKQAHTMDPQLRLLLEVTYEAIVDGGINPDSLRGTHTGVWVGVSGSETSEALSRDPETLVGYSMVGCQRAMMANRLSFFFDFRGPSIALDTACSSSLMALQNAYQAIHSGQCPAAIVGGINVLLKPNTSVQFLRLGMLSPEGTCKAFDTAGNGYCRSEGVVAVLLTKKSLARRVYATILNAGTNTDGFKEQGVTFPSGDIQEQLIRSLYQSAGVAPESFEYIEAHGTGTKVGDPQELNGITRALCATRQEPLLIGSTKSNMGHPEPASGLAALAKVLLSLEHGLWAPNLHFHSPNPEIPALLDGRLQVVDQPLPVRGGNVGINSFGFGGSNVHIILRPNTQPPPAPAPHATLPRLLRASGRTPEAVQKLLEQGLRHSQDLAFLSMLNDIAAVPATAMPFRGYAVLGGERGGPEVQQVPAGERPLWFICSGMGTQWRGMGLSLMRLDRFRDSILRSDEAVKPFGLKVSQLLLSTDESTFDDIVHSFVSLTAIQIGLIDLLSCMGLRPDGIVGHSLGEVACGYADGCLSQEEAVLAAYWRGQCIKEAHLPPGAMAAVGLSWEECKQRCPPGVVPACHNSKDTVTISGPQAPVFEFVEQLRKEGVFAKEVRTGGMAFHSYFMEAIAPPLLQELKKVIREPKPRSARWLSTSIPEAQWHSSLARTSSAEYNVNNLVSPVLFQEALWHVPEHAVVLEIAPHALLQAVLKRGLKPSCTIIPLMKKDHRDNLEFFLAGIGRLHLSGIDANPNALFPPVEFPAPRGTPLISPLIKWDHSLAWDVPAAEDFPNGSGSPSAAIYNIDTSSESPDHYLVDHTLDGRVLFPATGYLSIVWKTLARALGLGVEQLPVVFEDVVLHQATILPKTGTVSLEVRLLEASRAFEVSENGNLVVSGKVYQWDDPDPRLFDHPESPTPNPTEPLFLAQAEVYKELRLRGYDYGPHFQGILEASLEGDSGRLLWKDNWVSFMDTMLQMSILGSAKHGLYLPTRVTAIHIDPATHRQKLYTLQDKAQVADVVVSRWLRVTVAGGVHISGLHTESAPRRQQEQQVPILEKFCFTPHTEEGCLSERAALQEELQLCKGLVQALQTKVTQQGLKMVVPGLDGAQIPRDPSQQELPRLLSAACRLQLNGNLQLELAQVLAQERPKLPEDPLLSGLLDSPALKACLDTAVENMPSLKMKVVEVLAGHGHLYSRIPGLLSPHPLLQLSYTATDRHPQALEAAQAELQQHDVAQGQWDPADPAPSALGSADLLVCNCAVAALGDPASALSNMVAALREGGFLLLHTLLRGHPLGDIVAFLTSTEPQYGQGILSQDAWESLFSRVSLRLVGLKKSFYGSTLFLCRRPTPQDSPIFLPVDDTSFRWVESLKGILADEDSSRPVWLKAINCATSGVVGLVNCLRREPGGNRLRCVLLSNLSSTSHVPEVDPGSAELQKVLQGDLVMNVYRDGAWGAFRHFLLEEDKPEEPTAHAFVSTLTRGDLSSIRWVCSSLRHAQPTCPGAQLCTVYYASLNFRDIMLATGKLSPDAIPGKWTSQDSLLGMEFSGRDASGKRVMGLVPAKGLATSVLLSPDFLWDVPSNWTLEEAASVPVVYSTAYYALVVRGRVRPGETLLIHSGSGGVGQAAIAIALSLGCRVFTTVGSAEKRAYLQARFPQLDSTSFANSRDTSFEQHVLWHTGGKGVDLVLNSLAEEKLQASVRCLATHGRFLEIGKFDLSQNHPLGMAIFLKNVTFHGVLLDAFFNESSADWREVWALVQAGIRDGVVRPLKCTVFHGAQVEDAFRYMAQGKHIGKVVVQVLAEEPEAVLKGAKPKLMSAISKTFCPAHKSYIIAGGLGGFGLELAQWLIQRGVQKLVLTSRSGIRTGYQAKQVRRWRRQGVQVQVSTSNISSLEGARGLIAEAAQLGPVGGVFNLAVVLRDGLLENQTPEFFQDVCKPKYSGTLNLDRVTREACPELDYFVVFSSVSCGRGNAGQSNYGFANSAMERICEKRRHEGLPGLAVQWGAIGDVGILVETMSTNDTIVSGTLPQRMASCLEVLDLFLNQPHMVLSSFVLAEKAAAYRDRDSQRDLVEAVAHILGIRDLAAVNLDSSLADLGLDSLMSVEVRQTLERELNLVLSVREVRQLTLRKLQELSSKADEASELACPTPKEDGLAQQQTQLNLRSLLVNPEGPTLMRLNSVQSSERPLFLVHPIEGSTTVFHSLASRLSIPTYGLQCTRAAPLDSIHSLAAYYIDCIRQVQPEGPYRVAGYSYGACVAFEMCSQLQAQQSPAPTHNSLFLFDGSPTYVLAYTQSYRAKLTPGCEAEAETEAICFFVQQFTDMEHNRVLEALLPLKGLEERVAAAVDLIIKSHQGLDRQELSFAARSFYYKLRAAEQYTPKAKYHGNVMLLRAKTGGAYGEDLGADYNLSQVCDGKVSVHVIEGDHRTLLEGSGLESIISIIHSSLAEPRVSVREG

Fatty acid synthase [5] = target: T3, Fatty acid synthase; experiment: FAS thioesterase domain inhibitors, dose response, biochemical, kinetic fluorescence intensity (AID 624326); format: functional;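 further: rate of fluorescence rise from hydrolysis of a fluorogenic O-methyl fluorescein ester substrate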
[6] = target: T4, Corticotropin-releasing factor receptor 2/Corticotropin-releasing factor-binding protein (Homo sapiens, UniProt P24387+Q13324); experiment: Dose Response confirmation of uHTS hits for small molecule antagonists of the CRF-binding protein and CRF-R2 receptor complex.; format: functional; details: read-out: IC50_Mean
T4 sequence (Q13324 whole entry): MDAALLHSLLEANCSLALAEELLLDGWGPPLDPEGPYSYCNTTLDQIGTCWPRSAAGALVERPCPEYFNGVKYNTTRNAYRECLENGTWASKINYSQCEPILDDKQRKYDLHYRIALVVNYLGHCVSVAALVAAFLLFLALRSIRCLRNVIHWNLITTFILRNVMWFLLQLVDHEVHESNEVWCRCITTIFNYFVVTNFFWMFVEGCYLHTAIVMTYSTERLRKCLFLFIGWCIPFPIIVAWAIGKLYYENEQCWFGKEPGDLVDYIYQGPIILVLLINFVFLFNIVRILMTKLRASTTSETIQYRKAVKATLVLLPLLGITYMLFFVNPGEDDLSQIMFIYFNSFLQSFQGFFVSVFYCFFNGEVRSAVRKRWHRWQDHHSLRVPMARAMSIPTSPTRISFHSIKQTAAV
T4 sequence (P24387 whole entry): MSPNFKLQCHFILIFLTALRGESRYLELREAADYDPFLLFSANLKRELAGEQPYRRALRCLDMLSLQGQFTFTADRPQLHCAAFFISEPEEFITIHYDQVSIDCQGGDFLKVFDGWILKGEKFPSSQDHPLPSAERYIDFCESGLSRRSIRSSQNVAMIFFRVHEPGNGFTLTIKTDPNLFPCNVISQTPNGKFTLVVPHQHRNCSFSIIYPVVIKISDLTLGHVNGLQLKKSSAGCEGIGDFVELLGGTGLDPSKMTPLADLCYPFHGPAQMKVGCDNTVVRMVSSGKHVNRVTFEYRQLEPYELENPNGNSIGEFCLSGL

[7] = target: T4, Corticotropin-releasing factor receptor 2/Corticotropin-releasing factor-binding protein; experiment: activators of CRF receptor 2 with binding protein – uHTS hits, confirmation (AID 602473); format: functional; details: read-out: EC50_Mean
[8] = growth suppression of PTEN-null colon cells, dose response, cell-based, HCT116 PTEN knockout (AID 1047); format: functional;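 further: HCT116 colon tumor cells with PTEN knocked out; cells exposed to compound for 60 hours before readout; potency for loss of cell viability measured by luminescence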
[9] = growth suppression of beta-catenin-knockout colon cells, dose response, cell-based, HCT116, human colon tumor (AID 1045); format: functional;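 further: HCT116 colon tumor cells with beta catenin knocked out; cells exposed to compound for 60 hours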
INS1 = experiment: beta cell apoptosis inhibitors, cytokine rescue, dose response, luminescence, retest (AID 449756); format: functional, cell-based; details: Rattus norvegicus;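 further: cell death triggered by IL-1 beta plus TNF-alpha plus IFN-gamma mixture; protective hits raise ATP signal compared with cytokine alone wells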
[10] = Luminescence Cell-Based Dose Response HTS to Identify Activators of Luciferase Translation or Activity in H4 […] Cells. [Related pubchem assays: 1829 (Project Summary), 1814 (Primary HTS)]; format: functional
H4 = experiment: Luminescence Cell-Based Dose Response HTS to Identify Activators of 5'UTR Stem-Loop Driven Prion Protein mRNA Translation in H4 Neuroglioblastoma Cells. [Related pubchem assays: 1829 (Project Summary), 1814 (Primary HTS)]; format: functional; details: Homo sapiens
[11] = target: FAD-linked sulfhydryl oxidase ALR (Homo sapiens, UniProt P55789); experiment: inhibitors of human ALR sulfhydryl oxidase, dose response, biochemical, H2O2 detection, luminescence, cherry-pick (AID 493248)
Sequence of FAD-linked sulfhydryl oxidase ALR (P55789 whole entry): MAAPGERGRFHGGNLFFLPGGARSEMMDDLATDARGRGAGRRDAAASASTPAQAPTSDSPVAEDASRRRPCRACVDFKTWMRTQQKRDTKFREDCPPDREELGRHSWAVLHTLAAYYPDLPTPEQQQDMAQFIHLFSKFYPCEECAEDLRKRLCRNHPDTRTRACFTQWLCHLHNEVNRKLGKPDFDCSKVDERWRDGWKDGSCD

[12] = HEp-2 cell cytotoxicity, dose response, cytotoxicity control for RSV inhibitor project, HTS (AID 2410); format: functional; details: human respiratory syncytial virus
[13] = target: T2, Heat shock factor protein 1; experiment: inhibition of MG132-induced HSE-luciferase signal, confirmation, cell-based, NIH3T3, luminescence, dose retest (AID 2382); format: functional;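 further: NIH3T3 fibroblasts with HSF1-driven luciferase reporter stressed by proteasome inhibitor MG132; luminescence from HSF1-driven luciferase expression after 8 hours of MG132 stress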

T1 sequence (P11940 whole entry): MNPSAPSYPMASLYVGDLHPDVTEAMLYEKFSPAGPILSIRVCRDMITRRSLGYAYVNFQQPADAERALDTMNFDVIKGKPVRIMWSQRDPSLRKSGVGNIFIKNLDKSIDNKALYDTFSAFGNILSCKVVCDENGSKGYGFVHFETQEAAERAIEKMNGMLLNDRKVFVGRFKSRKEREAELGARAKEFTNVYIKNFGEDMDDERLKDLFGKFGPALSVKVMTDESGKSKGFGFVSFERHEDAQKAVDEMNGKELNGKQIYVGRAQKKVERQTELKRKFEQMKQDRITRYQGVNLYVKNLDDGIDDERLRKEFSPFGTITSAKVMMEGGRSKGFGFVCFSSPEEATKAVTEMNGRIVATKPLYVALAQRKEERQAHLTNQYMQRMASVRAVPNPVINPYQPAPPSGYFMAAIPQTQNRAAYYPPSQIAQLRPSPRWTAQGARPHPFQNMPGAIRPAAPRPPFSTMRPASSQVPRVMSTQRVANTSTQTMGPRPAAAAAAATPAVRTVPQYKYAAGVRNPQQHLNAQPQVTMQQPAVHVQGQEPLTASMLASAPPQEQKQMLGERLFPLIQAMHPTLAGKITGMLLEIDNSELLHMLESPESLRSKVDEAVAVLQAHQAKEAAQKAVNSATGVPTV

Row | Structure (SMILES) | IC50 [1] | IC50 [2] | IC50 (Fatty acid synthase [4]) | IC50 (Fatty acid synthase [5]) | also measured
1 | O=C(COc1ccc(Cl)cc1Cl)Nn1c(=S)[nH]c2ncccc2c1=O | > 66 µM (inactive) | > 66 µM (inactive) | – | – | –
2 | O=C(OCc1nnc(-c2ccccc2)o1)c1cc([N+](=O)[O-])ccc1Cl | – | – | – | – | IC50 (cells): 11.8 µM (active)
3 | Cc1ccc(S(=O)(=O)N(C)C)cc1NC(S)=NC(C)CCCC(C)C (stereo not drawn) | – | – | 12.3 µM (active) | 9.82 µM (active) | EC50 [3]: > 260 µM (inactive)
4 | CC(C)(C)c1ccc(OCCSc2nc3ccccc3n2CC(=O)O)cc1 | – | – | 2.39 µM (active) | 2.14 µM (active) | –
5 | CN1C[C@H](C(=O)N[C@]2(C)O[C@@]3(O)[C@@H]4CCCN4C(=O)[C@H](Cc4ccccc4)N3C2=O)CC2c3cccc4[nH]cc(c34)C[C@H]21 (stereo partly drawn) | – | – | 9.27 µM (active) | 15.6 µM (active) | –
6 | CCN(CC(=O)Nc1c(F)cccc1F)C(=O)Cc1ccc2c(c1)CCC2 | > 66 µM (inactive) | > 66 µM (inactive) | – | – | –
7 | O=C(NC(=S)Nc1cc([N+](=O)[O-])ccc1O)c1cccnc1 | > 66 µM (inactive) | > 66 µM (inactive) | – | – | –
8 | O=C(COc1ccc(C(=S)N2CCOCC2)cc1Cl)Nc1ccccc1Cl | > 66 µM (inactive) | > 66 µM (inactive) | – | – | –
9 | COC(=O)C1CCN(C(=O)COC(=O)c2cc([N+](=O)[O-])ccc2N2CCOCC2)CC1 | – | – | 5.73 µM (active) | 3.96 µM (active) | IC50 [6]: > 47.1 µM (inactive); EC50 [7]: > 53 µM (inactive)
10 | c1ccc(Cc2nnc3sc(-c4ccncc4)nn23)cc1 | > 66 µM (inactive) | > 66 µM (inactive) | – | – | –
11 | CCOC(=O)N1CCN(Cc2c(O)ccc3ccccc23)CC1 | > 66 µM (inactive) | > 66 µM (inactive) | – | – | –
12 | Cc1cc(N2CCN(S(=O)(=O)c3ccc(Cl)cc3)CC2)c2ccccc2n1 | – | – | – | – | EC50 [8]: 26.3 µM (active); EC50 [9]: 24.9 µM (active); AC50 (INS1): 6.39 µM (active)
13 | O=C(c1ccccc1-c1nc(-c2ccc(Cl)cc2)no1)N1CCCC1 | – | – | – | – | EC50 [10]: 8.33 µM (active); EC50 (H4): 99.2 µM (active)
14 | COc1ccc([C@H]2CC(=O)C=C(c3ccc(C)c([N+](=O)[O-])c3)C2)cc1 | – | – | 2.65 µM (active) | 2.14 µM (active) | –
15 | O=C(c1cccs1)N1CCN=C1SCc1cccnc1 | – | – | – | – | AC50 [11]: 1.27 µM (active)
16 | COc1ccc(C(=O)OCC(=O)Nc2ccccc2)cc1[N+](=O)[O-] | – | – | 7.38 µM (active) | 9.96 µM (active) | –
17 | CCCc1nnc(NC(=O)c2cc3ccccc3oc2=O)s1 | – | – | – | – | IC50 (cells): 2.83 µM (active)
18 | CCCOc1ccc(Cc2c(Cl)nc(SC)nc2NC)cc1 | – | – | – | – | AC50 (INS1): 3.53 µM (active)
19 | CC[n+]1c(/C=C/c2cc([N+](=O)[O-])ccc2O)ccc2ccccc21 | – | – | – | – | CC50 [12]: 36.9 µM (active); EC50 [13]: > 195 µM (not active)
